Measured values taken from patent publication US8487108B2, “Piperidinyl carbamate intermediates for the synthesis of aspartic protease inhibitors” (Vitae Pharmaceuticals, Inc., priority 2005, dated 2013).
pIC50: −log10 of the molar value.

Target: T1, trypsin-activated recombinant human renin (Homo sapiens, UniProt P00797)
T1 sequence (P00797 67-406): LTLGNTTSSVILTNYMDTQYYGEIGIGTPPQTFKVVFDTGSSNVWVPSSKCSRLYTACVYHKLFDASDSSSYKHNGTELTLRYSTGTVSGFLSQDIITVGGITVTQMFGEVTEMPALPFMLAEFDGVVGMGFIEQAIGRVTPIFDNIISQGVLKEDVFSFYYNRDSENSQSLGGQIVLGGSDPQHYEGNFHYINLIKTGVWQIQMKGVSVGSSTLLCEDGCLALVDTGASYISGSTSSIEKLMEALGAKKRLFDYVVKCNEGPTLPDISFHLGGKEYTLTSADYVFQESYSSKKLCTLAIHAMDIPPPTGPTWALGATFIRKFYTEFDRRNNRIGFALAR
Assay: Renin fluorescence assay (internally quenched peptide substrate)
Type: biochemical
Conditions: compounds I*
Protocol: The sequence of this peptide corresponds to the sequence of human angiotensinogen. The following test protocol can be used. All reactions are carried out in a flat bottom white opaque microtiter plate. A 4 μL aliquot of 400 μM renin substrate (DABCYL-γ-[…]) in 192 μL assay buffer (50 mM BES, 150 mM NaCl, 0.25 mg/mL bovine serum albumin, pH7.0) is added to 4 μL of test compound in DMSO at various concentrations ranging from 10 μM to 1 nM final concentrations. Next, 100 μL of trypsin-activated recombinant human renin (final enzyme concentration of 0.2-2 nM) in assay buffer is added, and the solution is mixed by pipetting. The increase in fluorescence at 495 nm (excitation at 340 nm) is measured for 60-360 minutes at rt using a Perkin-Elmer Fusion microplate reader. The slope of a linear portion of the plot of fluorescence-increase as a function of time is then determined, and the rate is used for calculating percent inhibition in relation to uninhibited control. […] (Wang G. T. et al. Anal. Biochem. 1993, 210, 351; Nakamura, N. et al. J. Biochem. (Tokyo) 1991, 109, 741; Murakami, K. et al. Anal Biochem. 1981, 110, 232).

## CNC[C@H](CC1(C)CCCCC1)NC(=O)N1CCC[C@@H]([C@@H](OCCNC(=O)OC)c2cc(F)cc(F)c2)C1 [I*-95a, methyl 2-((R)-(3,5-difluorophenyl)((R)-1-((S)-1-(methylamino)-3-(1-methylcyclohexyl)propan-2-ylcarbamoyl)piperidin-3-yl)methoxy)ethylcarbamate]
  pIC50: > 8.00

## CC[C@@H](NC)[C@H](CC1CCCCC1)NC(=O)N1CCC[C@@H]([C@@H](OCCNC(=O)OC)c2cccc(Cl)c2)C1 [I*-130a, methyl 2-((R)-(3-chlorophenyl)((R)-1-((2S,3R)-1-cyclohexyl-3-(methylamino)pentan-2-ylcarbamoyl)piperidin-3-yl)methoxy)ethylcarbamate]
  pIC50: > 7.70

## CNC[C@@H](NC(=O)N1CCC[C@@H]([C@@H](OCCNC(=O)OC)c2cc(F)cc(F)c2)C1)[C@@H](O)C1CCCCC1 [I*-112a, methyl 2-((R)-((R)-1-((1S,2R)-1-cyclohexyl-1-hydroxy-3-(methylamino)propan-2-ylcarbamoyl)piperidin-3-yl)(3,5-difluorophenyl)methoxy)ethylcarbamate]
  pIC50: > 9.00

## CNC[C@H](CC1CCC(F)(F)CC1)NC(=O)N1CCC[C@@H]([C@@H](OCCNC(=O)OC)c2cccc(Cl)c2)C1 [I*-146a, methyl 2-((R)-(3-chlorophenyl)((R)-1-((S)-1-(4,4-difluorocyclohexyl)-3-(methylamino)propan-2-ylcarbamoyl)piperidin-3-yl)methoxy)ethylcarbamate]
  pIC50: > 9.00

## CCNC(=O)CO[C@@H](c1cccc(Cl)c1)[C@@H]1CCCN(C(=O)N[C@H](CNC)C[C@H]2CCCCOC2)C1 [I*-61a, (R)-3-((R)-(3-chlorophenyl)(2-(ethylamino)-2-oxoethoxy)methyl)-N-((2S)-1-(methylamino)-3-((R)-oxepan-3-yl)propan-2-yl)piperidine-1-carboxamide]
  pIC50: > 8.00

## CNC[C@H](CC1CCCC1)NC(=O)N1CCC[C@@H]([C@@H](OCCNC(=O)OC)c2cccc(Cl)c2)C1 [I*-29a, methyl 2-((R)-(3-chlorophenyl)((R)-1-((S)-1-cyclopentyl-3-(methylamino)propan-2-ylcarbamoyl)piperidin-3-yl)methoxy)ethylcarbamate]
  pIC50: > 9.00

## CNC[C@H](CC1CCCCC1)NC(=O)N1CCC[C@@H]([C@@H](OCCNC(=O)OC)c2ccc(F)c(Cl)c2)C1 [I*-118a, methyl 2-((R)-(3-chloro-4-fluorophenyl)((R)-1-((S)-1-cyclohexyl-3-(methylamino)propan-2-ylcarbamoyl)piperidin-3-yl)methoxy)ethylcarbamate]
  pIC50: > 9.00

## CNC[C@H](CC1CCCOC1)NC(=O)N1CCC[C@@H]([C@@](O)(CCCNC(=O)OC)c2cccc(Cl)c2F)C1 (stereo partly drawn) [I*-139a, methyl (S)-4-(3-chloro-2-fluorophenyl)-4-hydroxy-4-((3R)-1-((S)-1-(methylamino)-3-(tetrahydro-2H-pyran-3-yl)propan-2-ylcarbamoyl)piperidin-3-yl)butylcarbamate]
  pIC50: > 8.00

## COCC(C)(C)C[C@H](N)CNC(=O)N1CCC[C@@H]([C@@H](OCCNC(=O)OC)c2cccc(Cl)c2)C1 [I*-35a, methyl 2-((R)—((R)-1-((S)-2-amino-5-methoxy-4,4-dimethylpentylcarbamoyl)piperidin-3-yl)(3-chlorophenyl)methoxy)ethylcarbamate]
  pIC50: > 7.70

## COC(=O)NCCO[C@@H](c1cc(Cl)ccc1C)[C@@H]1CCCN(C(=O)NC[C@@H](N)C[C@H]2CCCCOC2)C1 [I*-109a, methyl 2-((R)-((R)-1-((S)-2-amino-3-((R)-oxepan-3-yl)propylcarbamoyl)piperidin-3-yl)(5-chloro-2-methylphenyl)methoxy)ethylcarbamate]
  pIC50: > 9.00

## CNC[C@@H](NC(=O)N1CCC[C@@H]([C@@H](OCCNC(=O)OC)c2cccc(Cl)c2F)C1)[C@@H](O)C1CCCCC1 [I*-138a, methyl 2-((R)-(3-chloro-2-fluorophenyl)((R)-1-((1S,2R)-1-cyclohexyl-1-hydroxy-3-(methylamino)propan-2-ylcarbamoyl)piperidin-3-yl)methoxy)ethylcarbamate]
  pIC50: > 8.00

## CNC[C@H](CC1CCCCC1)NC(=O)N1CCC[C@H]([C@@H](OCCNC(=O)OC)c2c(C)ccc(F)c2F)C1 [I*-97a, methyl 2-((R)-((S)-1-((S)-1-cyclohexyl-3-(methylamino)propan-2-ylcarbamoyl)piperidin-3-yl)(2,3-difluoro-6-methylphenyl)methoxy)ethylcarbamate]
  pIC50: > 7.70

## CNC[C@H](CC1CCOCC1)NC(=O)N1CCC[C@@H]([C@@H](OCCNC(=O)OC)c2cc(C)ccc2F)C1 [I*-49a, methyl 2-((R)-(2-fluoro-5-methylphenyl)((R)-1-((S)-1-(methylamino)-3-(tetrahydro-2H-pyran-4-yl)propan-2-ylcarbamoyl)piperidin-3-yl)methoxy)ethylcarbamate]
  pIC50: < 7.30

## CNC[C@H](CC1CCOCC1)NC(=O)N1CCC[C@@H]([C@@H](OCCNC(=O)OC)c2cccc(F)c2F)C1 [I*-71a, methyl 2-((R)-(2,3-difluorophenyl)((R)-1-((S)-1-(methylamino)-3-(tetrahydro-2H-pyran-4-yl)propan-2-ylcarbamoyl)piperidin-3-yl)methoxy)ethylcarbamate]
  pIC50: > 7.70

## CCC(C)(C)C[C@@H](CNC)NC(=O)N1CCC[C@@H]([C@@H](OCCNC(=O)OC)c2cccc(F)c2)C1 [I*-7a, methyl 2-((R)-((R)-1-((S)-4,4-dimethyl-1-(methylamino)hexan-2-ylcarbamoyl)piperidin-3-yl)(3-fluorophenyl)methoxy)ethylcarbamate]
  pIC50: > 8.00

## CNC[C@@H](C[C@H]1CCCC[C@@H]1O)NC(=O)N1CCC[C@@H]([C@@H](OCCNC(=O)OC)c2cccc(Cl)c2)C1 (relative stereo) [I*-104a, methyl 2-((R)-(3-chlorophenyl)((R)-1-((R)-1-((1R*,2S*)-2-hydroxycyclohexyl)-3-(methylamino)propan-2-ylcarbamoyl)piperidin-3-yl)methoxy)ethylcarbamate]
  pIC50: > 7.70

## CNC[C@H](CC1CCCCC1)NC(=O)N1CCC[C@@H]([C@@H](OCCNC(=O)OC)c2c(C)ccc(F)c2F)C1 [I*-96a, methyl 2-((R)-((R)-1-((S)-1-cyclohexyl-3-(methylamino)propan-2-ylcarbamoyl)piperidin-3-yl)(2,3-difluoro-6-methylphenyl)methoxy)ethylcarbamate]
  pIC50: > 8.00

## CNC[C@H](CC1CCC(C)CC1)NC(=O)N1CCC[C@@H]([C@@H](OCCNC(=O)OC)c2cccc(Cl)c2)C1 (stereo partly drawn) [I*-86a, methyl 2-((R)-(3-chlorophenyl)((R)-1-((S)-1-(methylamino)-3-(4-methylcyclohexyl)propan-2-ylcarbamoyl)piperidin-3-yl)methoxy)ethylcarbamate]
  pIC50: > 9.00

## COC(=O)NCCO[C@@H](c1cccc(F)c1)[C@@H]1CCCN(C(=O)NC[C@@H](N)C[C@H]2CCCCOC2)C1 [I*-28a, methyl 2-((R)-((R)-1-((S)-2-amino-3-((R)-oxepan-3-yl)propylcarbamoyl)piperidin-3-yl)(3-fluorophenyl)methoxy)ethylcarbamate]
  pIC50: > 8.00

## CNC[C@H](CC1CCCCC1)NC(=O)N1CCC[C@@H]([C@H](OCCNC(=O)OC)c2nc(C)cs2)C1 [I*-33a, methyl 2-((S)-((R)-1-((S)-1-cyclohexyl-3-(methylamino)propan-2-ylcarbamoyl)piperidin-3-yl)(4-methylthiazol-2-yl)methoxy)ethylcarbamate]
  pIC50: < 7.30

## CNC[C@H](CC1CCCCC1)NC(=O)N1CCC[C@@H]([C@@H](OCCNC(=O)OC)c2cc(F)ccc2C)C1 [I*-40a, methyl 2-((R)-((R)-1-((S)-1-cyclohexyl-3-(methylamino)propan-2-ylcarbamoyl)piperidin-3-yl)(5-fluoro-2-methylphenyl)methoxy)ethylcarbamate]
  pIC50: > 9.00

## CNC[C@H](CC1CCCCC1)NC(=O)N1CCC[C@@H]([C@@H](OCCNC(=O)OC)C2CCCCC2)C1 [I*-10a, methyl 2-((S)-cyclohexyl((R)-1-((S)-1-cyclohexyl-3-(methylamino)propan-2-ylcarbamoyl)piperidin-3-yl)methoxy)ethylcarbamate]
  pIC50: > 8.00

## CNC[C@H](CC1CCOCC1)NC(=O)N1CCC[C@@H]([C@@H](OCCNC(=O)OC)c2cc(Cl)ccc2C)C1 [I*-101a, methyl 2-((R)-(5-chloro-2-methylphenyl)((R)-1-((S)-1-(methylamino)-3-(tetrahydro-2H-pyran-4-yl)propan-2-ylcarbamoyl)piperidin-3-yl)methoxy)ethylcarbamate]
  pIC50: > 8.00
